Measurements published in the SangsterLogP compilation.

What was measured:
[1] = method code SF-AS, from PMID: 6889867; details: for logD: pH 7.4
[2] = method code SF, from PMID: 6889867; details: pH 7.4

| Compound | logD [1] | logP [1] | further results |
| --- | --- | --- | --- |
| COc1cc(Cc2cnc(N)nc2N)cc2c1OCO2 | 1.19 | – | – |
| COc1ccc(Cc2cnc(N)nc2N)cc1O | 0.55 | – | – |
| COc1cc(Cc2cnc(N)nc2N)cc(OC)c1C(C)(C)O | 1.3 | – | – |
| COc1cc(Cc2cnc(N)nc2N)cc(OC)c1C(C)C | 3.18 | – | – |
| CNc1cc(Cc2cnc(N)nc2N)cc(N(C)C)c1OC | 1.56 | – | – |
| Nc1ncc(Cc2ccc3c(c2)OCO3)c(N)n1 | 1.3 | – | – |
| COc1cc(OC)c(OC)cc1Cc1cnc(N)nc1N | – | 1.17 | – |
| COc1cc(Cc2cnc(N)nc2N)cc(Cl)c1OC | 1.73 | – | – |
| COc1cc(Cc2cnc(N)nc2N)cc(OC)c1I | 2.21 | – | – |
| COc1cc(Cc2cnc(N)nc2N)cc(OC)c1O | – | 0.37 | – |
| COc1c(O)cc(Cc2cnc(N)nc2N)cc1O | – | -0.04 | – |
| CCSc1c(OC)cc(Cc2cnc(N)nc2N)cc1OC | – | 1.79 | – |
| CCOC(=O)c1c(OCC)cc(Cc2cnc(N)nc2N)cc1OCC | 2.09 | – | – |
| Nc1ncc(Cc2cc(Cl)c(Cl)c(Cl)c2)c(N)n1 | 3.45 | – | – |
| COc1cc(C)c(Cc2cnc(N)nc2N)cc1OC | – | 1.23 | – |
| Nc1ccc(Cc2cnc(N)nc2N)cc1 | – | 0.22 | – |
| COCc1c(OC)cc(Cc2cnc(N)nc2N)cc1OC | – | 1.19 | – |
| COc1cc(Cc2cnc(N)nc2N)cc(OC)c1C(=O)N(C)C | – | -0.21 | – |
| CNc1cc(Cc2cnc(N)nc2N)cc(NC)c1 | – | 0.44 | – |
| COc1cc(Cc2cnc(N)nc2N)ccc1SC | 1.73 | – | – |
| COc1cc(Cc2cnc(N)nc2N)cc(OCc2ccccc2)c1OC | – | 2.37 | – |
| COc1cc(Cc2cnc(N)nc2N)cc(OC)c1Br | 1.82 | – | – |
| COc1ccc(Cc2cnc(N)nc2N)cc1OCc1ccccc1 | – | 2.44 | – |
| COc1cc(Cc2cnc(N)nc2N)cc(OC)c1N | 0.6 | – | – |
| CCOc1cc(Cc2cnc(N)nc2N)cc(OCC)c1C(=O)CS(C)(=O)=O | – | 0.79 | – |

| Compound | logD [1] | logP [1] | further results |
| --- | --- | --- | --- |
| COc1cc(Cc2cnc(N)nc2N)cc(OC)c1C(=O)CS(C)(=O)=O | – | -0.31 | – |
| Cc1cc2c(cc1Cc1cnc(N)nc1N)OCO2 | 1.7 | – | – |
| COc1c(C)cc(Cc2cnc(N)nc2N)cc1C | – | 2.19 | – |
| CCOC(=O)c1c(OC)cc(Cc2cnc(N)nc2N)cc1OC | – | 1.25 | – |
| COc1ccc(Cc2cnc(N)nc2N)cc1OC | – | 0.97 | – |
| CN(C)c1cc(Cc2cnc(N)nc2N)cc(N(C)C)c1 | – | 1.6 | – |
| CCCCOc1cc(Cc2cnc(N)nc2N)c(C)cc1OC | – | 2.78 | – |
| O=C1CN=C(c2ccccc2F)c2cc(I)ccc2N1CC(O)CO (centres undefined) | 1.81 | – | – |
| COc1cc(Cc2cnc(N)nc2N)cc(C)c1OC | – | 1.62 | – |
| COc1cc(C)c(Cc2cnc(N)nc2N)cc1OCc1ccccc1 | – | 2.69 | – |
| COc1cc(Cc2cnc(N)nc2N)c(Cl)c(OC)c1 | 1.94 | – | – |
| COc1c(Cl)cc(Cc2cnc(N)nc2N)cc1Cl | – | – | logD [2]: 2.59 |
| COc1c(OCc2ccccc2)cc(Cc2cnc(N)nc2N)cc1OCc1ccccc1 | 3.7 | – | – |
| COc1cc(Cc2cnc(N)nc2N)ccc1C(C)(C)O | – | 1.38 | – |
| COc1cc(Cc2cnc(N)nc2N)cc(O)c1O | – | -0.31 | – |
| COc1cncc(OC)c1Cc1cnc(N)nc1N | 1.48 | – | – |
| COC(=O)c1c(OC)cc(Cc2cnc(N)nc2N)cc1OC | 0.76 | – | – |
| CCOc1cc(Cc2cnc(N)nc2N)cc(OCC)c1-n1cccc1 | 2.74 | – | – |
| COc1cc(Cc2cnc(N)nc2N)ccc1OCc1ccccc1 | – | 2.66 | – |
| COc1cc(Cc2cnc(N)nc2N)cc(OC)c1C#N | 1.2 | – | – |
| COc1cc(Cc2cnc(N)nc2N)cc(OC)c1-n1cccc1 | – | 1.78 | – |
| COc1cc(Cc2cnc(N)nc2N)cc(OC)c1OCc1ccccc1 | – | 2.46 | – |
| COC(=O)COc1c(OC)cc(Cc2cnc(N)nc2N)cc1OC | – | 0.55 | – |
| COc1cc(Cc2cnc(N)nc2N)cc(OC)c1C(=O)OC(C)C | – | 1.72 | – |
| COc1cc(Cc2cnc(N)nc2N)cc(I)c1OC | 2.14 | – | – |

| Compound | logD [1] | logP [1] | further results |
| --- | --- | --- | --- |
| COc1cc(OC)c(Cl)c(Cc2cnc(N)nc2N)c1Cl | 2.32 | – | – |
| Nc1ncc(Cc2cc(Cl)c(Cl)cc2Cl)c(N)n1 | 3.6 | – | – |
| COc1cc(Cc2cnc(N)nc2N)ccc1C | 1.95 | – | – |
| C=C(C)c1c(OC)cc(Cc2cnc(N)nc2N)cc1OCC | – | 2.65 | – |
| CCOc1cc(Cc2cnc(N)nc2N)cc(OCC)c1C(C)(C)O | 2.3 | – | – |
| Nc1ncc(Cc2cc3c(cc2Br)OCO3)c(N)n1 | 2.3 | – | – |
| CCOc1cc(Cc2cnc(N)nc2N)cc(OCC)c1N | 1.5 | – | – |
| Cc1c(N(C)C)cc(Cc2cnc(N)nc2N)cc1N(C)C | – | 2.06 | – |
| COc1cccc(Cc2cnc(N)nc2N)c1 | – | 1.54 | – |
| C=CCc1c(OCC)cc(Cc2cnc(N)nc2N)cc1OCC | 2.89 | – | – |
| COc1c(N(C)C)cc(Cc2cnc(N)nc2N)cc1N(C)C | 1.86 | – | – |
| CNc1cc(Cc2cnc(N)nc2N)cc(N(C)C(C)=O)c1C | – | 0.53 | – |
| COc1cc(Cc2cnc(N)nc2N)cc(OCc2ccccc2)c1OCc1ccccc1 | 3.9 | – | – |
| COc1cc(Cc2cnc(N)nc2N)cc(OC)c1SC | – | 1.54 | – |
| COc1ccc(Cc2cnc(N)nc2N)c(OC)n1 | 1.83 | – | – |
| CCOc1cc(Cc2cnc(N)nc2N)cc(OC)c1C(C)(C)O | 1.92 | – | – |
| CCOc1cc(Cc2cnc(N)nc2N)cc(OCC)c1C(C)=O | 1.85 | – | – |
| COc1cc(Cc2cnc(N)nc2N)cc(OC)c1CO | – | 0.42 | – |
| COc1cc(Cc2cnc(N)nc2N)cc(OC)c1C(C)=O | 0.91 | – | – |
| COCCOc1c(OC)cc(Cc2cnc(N)nc2N)cc1OC | – | 0.56 | – |
| COc1cc(Cc2cnc(N)nc2N)cc(OC)c1Cl | – | 1.87 | – |
| COc1cc(Cc2cnc(N)nc2N)ccc1O | – | 0.64 | – |
| COc1cc(Cc2cnc(N)nc2N)cc(OC)c1OCC#N | – | 0.72 | – |
| CCOc1c(OC)cc(Cc2cnc(N)nc2N)cc1OC | – | 1.34 | – |
